From ChEMBL document CHEMBL5108005, “Rational design of a trypanocidal peptide derived from Dinoponera quadriceps venom” (Eur J Med Chem, 2022)
Activity calls are given as the source filed them. No cut-off for these calls is given here.

How the values were obtained:
Trypanosoma cruzi [1] = assay: Induction of cell death in Trypanosoma cruzi Y epimastigotes assessed as live cells at 125 uM incubated for 24 hrs by Annexin V/7-AAD staining based flow cytometric analysis (reference value: 98.6 %); format: functional
Trypanosoma cruzi [2] = assay: Induction of mitochondrial membrane potential loss in Trypanosoma cruzi Y epimastigotes at 125 uM incubated for 24 hrs by Rhodamine 123 staining based flow cytometric analysis relative to control; format: functional
Trypanosoma cruzi [3] = assay: Antitrypanosomal activity against Trypanosoma cruzi Y epimastigotes assessed as parasite growth inhibition measured after 24 hrs by hemocytometer chamber based analysis; format: functional, organism-based
Trypanosoma cruzi [4] = assay: Induction of cell death in Trypanosoma cruzi Y epimastigotes assessed as dead cells at 125 uM incubated for 24 hrs by Annexin V/7-AAD staining based flow cytometric analysis (reference value: 1.13 %); format: functional
[5] = Cytotoxicity against monkey LLC-MK2 cells assessed as reduction in cell viability incubated for 24 hrs by MTT assay; format: toxicity, cell-based; details: Macaca mulatta (monkey)
Trypanosoma cruzi [6] = assay: Antitrypanosomal activity against Trypanosoma cruzi Y epimastigotes assessed as parasite growth inhibition measured after 48 hrs by hemocytometer chamber based analysis; format: functional, organism-based
Trypanosoma cruzi [7] = assay: Antitrypanosomal activity against Trypanosoma cruzi Y trypomastigotes infected in monkey LLC-MK2 cells assessed as reduction in cell death inducing capability incubated for 24 hrs by hemocytometer chamber based analysis; format: functional, organism-based; details: LLC-MK2, 24 h
Trypanosoma cruzi [8] = assay: Induction of cell death in Trypanosoma cruzi Y epimastigotes assessed as late apoptotic cells at 125 uM incubated for 24 hrs by Annexin V/7-AAD staining based flow cytometric analysis (reference value: 0.12 %); format: functional
Trypanosoma cruzi [9] = assay: Induction of cell death in Trypanosoma cruzi Y epimastigotes assessed as early apoptotic cells at 125 uM incubated for 24 hrs by Annexin V/7-AAD staining based flow cytometric analysis (reference value: 0.11 %); format: functional
[10] = Selectivity index, ratio of EC50 for Cytotoxicity against monkey LLC-MK2 cells to EC50 for antitrypanosomal activity against Trypanosoma cruzi Y trypomastigotes infected in monkey LLC-MK2 cells; format: toxicity, cell-based; details: read-out: Ratio EC50
Trypanosoma cruzi [11] = assay: Antitrypanosomal activity against Trypanosoma cruzi Y epimastigotes assessed as parasite growth inhibition measured after 72 hrs by hemocytometer chamber based analysis; format: functional, organism-based
Trypanosoma cruzi [12] = assay: Induction of mitochondrial membrane potential loss in Trypanosoma cruzi Y epimastigotes at 7.2 uM incubated for 24 hrs by Rhodamine 123 staining based flow cytometric analysis relative to control; format: functional
[13] = (§1) Selectivity index, ratio of EC50 for Cytotoxicity against monkey LLC-MK2 cells to EC50 for antitrypanosomal activity against Trypanosoma cruzi Y amastigotes infected in monkey LLC-MK2 cells assessed as reduction in reduction in amastigotes per 100 cells measured after 48 hrs by Giemsa staining based analysis; format: toxicity, cell-based; details: read-out: Ratio EC50
Trypanosoma cruzi [14] = assay: Induction of membrane damage in Trypanosoma cruzi Y epimastigotes at EC50 measured after 12 hrs by SEM analysis; format: organism-based; details: Cell membrane
Trypanosoma cruzi [15] = assay: Induction of cell death in Trypanosoma cruzi Y epimastigotes assessed as dead cells at 7.2 uM incubated for 24 hrs by Annexin V/7-AAD staining based flow cytometric analysis (reference value: 1.13 %); format: functional
Trypanosoma cruzi [16] = assay: Induction of cell death in Trypanosoma cruzi Y epimastigotes assessed as live cells at 7.2 uM incubated for 24 hrs by Annexin V/7-AAD staining based flow cytometric analysis (reference value: 98.6 %); format: functional
[17] = Cytotoxicity against monkey LLC-MK2 cells assessed as reduction in cell viability incubated for 48 hrs by MTT assay; format: toxicity, cell-based; details: Macaca mulatta (monkey)
Trypanosoma cruzi [18] = assay: Induction of oxidative stress in Trypanosoma cruzi Y epimastigotes assessed as increase in ROS formation at 7.2 uM incubated for 24 hrs by DCFH-DA staining based analysis relative to control; format: functional
[19] = as §1, with “24” for “48”; format: toxicity, cell-based; details: read-out: Ratio EC50
Trypanosoma cruzi [20] = assay: Induction of cell death in Trypanosoma cruzi Y epimastigotes assessed as late apoptotic cells at 7.2 uM incubated for 24 hrs by Annexin V/7-AAD staining based flow cytometric analysis (reference value: 0.12 %); format: functional
Trypanosoma cruzi [21] = assay: Induction of cell death in Trypanosoma cruzi Y epimastigotes assessed as early apoptotic cells at 7.2 uM incubated for 24 hrs by Annexin V/7-AAD staining based flow cytometric analysis (reference value: 0.11 %); format: functional
Trypanosoma cruzi [22] = assay: Antitrypanosomal activity against Trypanosoma cruzi Y amastigotes infected in monkey LLC-MK2 cells assessed as reduction in reduction in amastigotes per 100 cells measured after 24 hrs by Giemsa staining based analysis; format: functional, organism-based; details: LLC-MK2, 24 h
Trypanosoma cruzi [23] = assay: Antitrypanosomal activity against Trypanosoma cruzi Y amastigotes infected in monkey LLC-MK2 cells assessed as reduction in reduction in amastigotes per 100 cells measured after 48 hrs by Giemsa staining based analysis; format: functional, organism-based; details: LLC-MK2, 48 h
Trypanosoma cruzi [24] = assay: Antitrypanosomal activity against Trypanosoma cruzi Y trypomastigotes infected in monkey LLC-MK2 cells assessed as reduction in cell death inducing capability incubated for 24 hrs by Neubauer chamber based analysis; format: functional, organism-based; details: LLC-MK2, 24 h
Trypanosoma cruzi [25] = assay: Induction of cell death in Trypanosoma cruzi Y epimastigotes assessed as late apoptotic cells at 13.5 uM incubated for 24 hrs by Annexin V/7-AAD staining based flow cytometric analysis (reference value: 0.12 %); format: functional
Trypanosoma cruzi [26] = assay: Induction of cell death in Trypanosoma cruzi Y epimastigotes assessed as live cells at 13.5 uM incubated for 24 hrs by Annexin V/7-AAD staining based flow cytometric analysis (reference value: 98.6 %); format: functional
Trypanosoma cruzi [27] = assay: Induction of cell death in Trypanosoma cruzi Y epimastigotes assessed as dead cells at 13.5 uM incubated for 24 hrs by Annexin V/7-AAD staining based flow cytometric analysis (reference value: 1.13 %); format: functional
Trypanosoma cruzi [28] = assay: Induction of oxidative stress in Trypanosoma cruzi Y epimastigotes assessed as increase in ROS formation at 13.5 uM incubated for 24 hrs by DCFH-DA staining based analysis relative to control; format: functional
Trypanosoma cruzi [29] = assay: Induction of cell death in Trypanosoma cruzi Y epimastigotes assessed as early apoptotic cells at 13.5 uM incubated for 24 hrs by Annexin V/7-AAD staining based flow cytometric analysis (reference value: 0.11 %); format: functional

Row | Compound | EC50 (Trypanosoma cruzi [3]) [µM] | EC50 at 24 h [5] [µM] | EC50 (Trypanosoma cruzi [6]) [µM] | EC50 (Trypanosoma cruzi [7]) [µM] | selectivity ratio [10] | EC50 (Trypanosoma cruzi [11]) [µM] | also measured
1 | O=C(Cn1ccnc1[N+](=O)[O-])NCc1ccccc1 [BENZNIDAZOLE] | 115 | 503 | 37.4 | 161 | 3.11 | 22.1 | Activity (Trypanosoma cruzi [1]): 93.22%; Activity (Trypanosoma cruzi [2]): 70%; Activity (Trypanosoma cruzi [4]): 5.71%; Activity (Trypanosoma cruzi [8]): 1.01%; Activity (Trypanosoma cruzi [9]): 0.06%
2 | H-AIPAAMGMKQNK-OH | 7.2 | 43.1 | 9.7 | 0.59 | 72.9 | 8.7 | Activity (Trypanosoma cruzi [12]): 65%; selectivity ratio at 48 h [13]: 96.7; Activity (Trypanosoma cruzi [14]): Active; Activity (Trypanosoma cruzi [15]): 12.42%; Activity (Trypanosoma cruzi [16]): 85.36%; EC50 at 48 h [17]: 35.8 µM; Activity (Trypanosoma cruzi [18]): 40%; selectivity ratio at 24 h [19]: 32.6; Activity (Trypanosoma cruzi [20]): 1.09%; Activity (Trypanosoma cruzi [21]): 1.13%; EC50 (Trypanosoma cruzi [22]): 1.32 µM; EC50 (Trypanosoma cruzi [23]): 0.37 µM
3 | H-FWGKLAKWALKAIPA-OH |  | 60 |  | 1.03 | 58.2 |  | 
4 | H-FWGRLAKWALKAIPA-OH |  | 9.6 |  | 1.09 | 8.8 |  | 
5 | H-FWGTLAKWAKKAIPA-OH |  | 97 |  | 1.09 |  |  | 
6 | H-FWGTLAKWALKAIPA-OH |  | > 50 |  | > 50 | < 50 |  | 
7 | H-FWGTLAKWALKAIPAAMGMKQNK-OH | 4.7 | 25.7 | 3.6 |  | 80.3 | 2.4 | EC50 (Trypanosoma cruzi [24]): 0.32 µM
8 | H-FWGTLAKWALRAIPA-OH |  | 38.5 |  | 1.54 | 24.7 |  | 
9 | H-FWGTLAKWARKAIPA-OH |  | 25.1 |  | 3.31 | 7.5 |  | 
10 | H-FWGTLARWALKAIPA-OH |  | 55 |  | 5.1 | 10.8 |  | 
11 | H-FWKTLAKWALKAIPA-OH | 13.5 | 73.4 | 16.8 | 0.86 | 85.3 | 19.3 | selectivity ratio at 48 h [13]: 157; Activity (Trypanosoma cruzi [14]): Active; Activity (Trypanosoma cruzi [25]): 1.04%; Activity (Trypanosoma cruzi [26]): 74.1%; Activity (Trypanosoma cruzi [27]): 25.06%; Activity (Trypanosoma cruzi [28]): 58%; EC50 at 48 h [17]: 43.9 µM; selectivity ratio at 24 h [19]: 80.7; EC50 (Trypanosoma cruzi [22]): 0.91 µM; Activity (Trypanosoma cruzi [29]): 0.01%; EC50 (Trypanosoma cruzi [23]): 0.28 µM
12 | H-FWRTLAKWALKAIPA-OH |  | 13 |  | 0.69 | 18.8 |  | 
13 | H-GTLAKWALKAIPA-OH |  | 189 |  | 8.76 | 21.6 |  | 
